Data reported in patent publication US20080070852A1, “3-Beta-D-Ribofuranosylthiazolo[ 4,5-D] Pyridimine Nucleosides and Uses Thereof” (priority 2004, published 2008).
Read-outs that look alike come from different tables or passages of the source.

What was measured:
beagle dogs [1] = test: Toxicology studies in beagle dogs (GI tolerance); details: dogs
Method: (§1) Formal toxicology studies of intravenously administered isatoribine and orally administered isatoribine and val-isatoribine were conducted in beagle dogs.
(§2) In each case the compound was administered as a solution, by gavage or by intravenous infusion. Multiple parameters were assessed, as is customary in a toxicology study. In the studies providing higher potential exposure to isatoribine, the plasma concentration of isatoribine was assessed by a LC/MS method.

[2] = Toxicology studies in beagle dogs (GI tolerance); details: beagle, dog, iv; for AUC(0-t): plasma
Method: as §1, §2

[3] = system: interferon alpha (Mu-IFN-α); test: Murine interferon alpha in plasma of dosed mice; format: in vivo
Description: The normal mouse provides a useful system for the assessment of the degree to which the inventions described herein provide material improvement in the oral delivery of 1 (isatoribine). Not only can one measure the plasma concentrations of isatoribine arising from oral administration of the said prodrug(s) but also the extensive immunological research conducted in the mouse has provided reagents suitable for measuring the levels of interferon alpha, a cytokine of interest reflecting one of the desired biologic activities of isatoribine.
Table 1 records the results of an assay for murine interferon alpha in the plasma of mice that were dosed two times with isatoribine, formulated in bicarbonate, at a level of 50 mg/kg by the oral route.
Table 2 records the results of assays for murine interferon alpha in the plasma of mice that first were dosed with bicarbonate and then four hours later were dosed orally with isatoribine, formulated in bicarbonate, at a level of 50 mg/kg. Interferon was reported in the plasma from four mice, including two that had received the bicarbonate vehicle dose.
Table 3 records the results of assays for murine interferon alpha in the plasma of mice that were dosed orally with val-isatoribine, dissolved in bicarbonate, at a dose that is equivalent to 50/mg/kg of isatoribine on a molar basis. […] Interferon was detected in all mice assayed at a given time point, indicating the reliability of the effect following val-isatoribine administration.
In other experiments, plasma levels of isatoribine and interferon alpha were measured in mice that were dosed with isatoribine by the intravenous route, and these levels were compared to the levels of isatoribine and interferon alpha arising after oral administration of val-isatoribine. […] Thus, oral val-isatoribine provides levels of isatoribine and interferon that are approximately 50% of those observed after intravenous administration of isatoribine itself.

beagle dogs [4] = details: cited from earlier work
[5] = Recovery of 1 in urine after intravenous administration; format: in vivo; details: read-out: recovery of administered dose in the urine as intact 1
Method: Reference values for compound I were obtained by similar procedures after either oral or intravenous dosing. […] For this reason, in some experiments the amount of 1 in urine collected over a period of 24 hours after dosing was used to assess compounds.

beagle dogs [6] = details: dog, in vivo, iv, 12.5 mg/kg
Method: as §1, §2

in vivo = details: beagle, dog, iv, 12.5 mg/kg
Method: as §1, §2

[7] = IV Isatoribine, applied dose 25 mg/kg
[8] = dogs, Oral Isatoribine, applied dose 2.5 mg/kg

Nc1nc2c(sc(=O)n2[C@@H]2O[C@H](CO)[C@@H](O)[C@H]2O)c(=O)[nH]1 [Compound 1, 5-amino-3-β-D-ribofuranosylthiazolo[4,5-d]pyrimidine-2,7-dione, reference compound]
GI lesions (beagle dogs [1]; intravenous, necropsy or histopathologic evaluation): No lesions were seen in the GI tract
Emesis or loose stool (beagle dogs [1]; [7]): Neg.
GI lesions or irritation (beagle dogs [1]; [7]): Neg.
GI lesions or irritation (beagle dogs [1]; IV Isatoribine, applied dose 50 mg/kg): Neg.
GI lesions or irritation (beagle dogs [1]; IV Isatoribine, applied dose 100 mg/kg): Neg.
NOAEL ([2]; in vivo): 12.5 mg/kg
AUC(0-t) ([2]; 25 mg/kg): 42800 ng·h/mL
AUC(0-t) ([2]; 50 mg/kg): 87800 ng·h/mL
AUC(0-t) ([2]; 100 mg/kg): 209000 ng·h/mL
interferon in plasma ([3]; mice, two oral 50 mg/kg doses, interval four hours): no interferon was measurable
mice with interferon detected in plasma ([3]; oral dosing, studies of Tables 1-3): 4 of the 114
limiting toxicity (beagle dogs [4]; dog, in vivo, po): gastrointestinal lesions
Emesis or loose stool (beagle dogs [4]; [8]): Neg.
GI lesions or irritation (beagle dogs [4]; [8]): Neg.
GI lesions or irritation (beagle dogs [4]; dogs, Oral Isatoribine, applied dose 5 mg/kg): Neg.
dogs with multiple, scattered red lesions on the intestinal mucosa (beagle dogs [4]; oral, 10 mg/kg, gross histopathologic evaluation): four of eight dogs
dose excreted [5]: > 75%
Emesis or loose stool (beagle dogs [6]): Neg.
GI lesions or irritation (beagle dogs [6]): Neg.
AUC(0-t) (in vivo): 19500 ng·h/mL
